In ChEMBL document CHEMBL1140353, “Structure-activity relationships of 1-alkyl-5-(3,4-dichlorophenyl)-5-{2-[3-(substituted)-1-azetidinyl]-ethyl}-2-piperidones. Part 2: Improving oral absorption” (Bioorg Med Chem Lett, 2005):

Species: Homo sapiens
Assay: Ratio of apical basolateral (A-B) and basolateral apical (B-A) determined by Caco-2 assay in human
Format: ADME
Conditions: not given

Caco-2 permeability | Structure (SMILES)
< 1 % hr-1 | NC1CCN(C2CN(CC[C@]3(c4ccc(Cl)c(Cl)c4)CCC(=O)N(CC4CCC(F)(F)CC4)C3)C2)CC1

Species: Homo sapiens
Assay: Ratio of apical basolateral (A-B) and basolateral apical (B-A) determined by Caco-2 assay in human (ER<2)
Format: ADME
Conditions: not given

Caco-2 permeability | Structure (SMILES)
10 % hr-1 | CS(=O)(=O)N1CCN(C2CN(CC[C@]3(c4ccc(Cl)c(Cl)c4)CCC(=O)N(CC4CC4)C3)C2)CC1

Species: Homo sapiens
Assay: Ratio of apical basolateral (A-B) and basolateral apical (B-A) determined by Caco-2 assay in human (ratio=2/3)
Format: ADME
Conditions: not given

Caco-2 permeability | Structure (SMILES)
Permeable | NC1CCN(C2CN(CC[C@]3(c4ccc(Cl)c(Cl)c4)CCC(=O)N(CC4CC4)C3)C2)CC1

Biological target: Substance-P receptor (Homo sapiens, UniProt P25103)
Sequence (P25103 whole entry): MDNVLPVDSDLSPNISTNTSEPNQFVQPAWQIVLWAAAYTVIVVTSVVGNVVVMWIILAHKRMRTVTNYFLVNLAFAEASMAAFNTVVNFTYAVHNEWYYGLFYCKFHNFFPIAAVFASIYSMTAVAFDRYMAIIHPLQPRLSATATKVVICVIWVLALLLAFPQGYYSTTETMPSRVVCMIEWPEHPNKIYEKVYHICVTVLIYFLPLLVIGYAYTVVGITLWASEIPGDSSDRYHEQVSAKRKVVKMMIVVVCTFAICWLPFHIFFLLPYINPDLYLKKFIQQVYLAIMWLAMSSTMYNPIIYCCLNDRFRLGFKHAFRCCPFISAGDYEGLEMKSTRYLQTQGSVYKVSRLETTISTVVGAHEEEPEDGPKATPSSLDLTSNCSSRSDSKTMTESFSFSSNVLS
Assay: Inhibitory concentration for Tachykinin 1 receptor of human IM9 cells
Format: cell-based, IM-9
Conditions: not given

IC50 | Structure (SMILES)
> 10000 nM | O=C1CC[C@](CCN2CC(N3CCC(F)CC3)C2)(c2ccc(Cl)c(Cl)c2)CN1CC1CCC(F)(F)CC1

Biological target: T1, Substance-K receptor (Homo sapiens, UniProt P21452)
T1 sequence (P21452 whole entry): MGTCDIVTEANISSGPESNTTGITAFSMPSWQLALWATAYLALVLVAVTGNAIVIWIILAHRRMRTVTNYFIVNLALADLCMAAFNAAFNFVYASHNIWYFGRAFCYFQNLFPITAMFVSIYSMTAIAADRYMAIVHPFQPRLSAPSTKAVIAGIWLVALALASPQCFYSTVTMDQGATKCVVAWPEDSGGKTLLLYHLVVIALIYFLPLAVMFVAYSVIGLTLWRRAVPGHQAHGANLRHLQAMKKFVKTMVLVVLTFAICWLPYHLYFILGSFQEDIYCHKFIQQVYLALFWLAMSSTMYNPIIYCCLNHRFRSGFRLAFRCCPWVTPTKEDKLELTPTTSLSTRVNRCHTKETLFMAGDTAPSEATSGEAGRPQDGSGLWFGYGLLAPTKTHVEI
Assay: Inhibition of human Neurokinin 2 receptor
Conditions: not given

IC50 | Structure (SMILES)
15.8 nM | CCOC1CCN(C2CN(CC[C@]3(c4ccc(Cl)c(Cl)c4)CCC(=O)N(CC4CC4)C3)C2)CC1
0.398 nM | O=C1CC[C@](CCN2CC(N3CCC(F)CC3)C2)(c2ccc(Cl)c(Cl)c2)CN1CC1CCC(F)(F)CC1
15.8 nM | CN(C)S(=O)(=O)N1CCN(C2CN(CC[C@]3(c4ccc(Cl)c(Cl)c4)CCC(=O)N(CC4CC4)C3)C2)CC1
2.51 nM | O=C1CC[C@](CCN2CC(N3CCC(F)CC3)C2)(c2ccc(Cl)c(Cl)c2)CN1CCC1CC1
1.26 nM | CS(=O)(=O)N1CCN(C2CN(CC[C@]3(c4ccc(Cl)c(Cl)c4)CCC(=O)N(CC4CCC(F)(F)CC4)C3)C2)CC1
7.94 nM | CS(=O)(=O)N1CCN(C2CN(CC[C@]3(c4ccc(Cl)c(Cl)c4)CCC(=O)N(CC4CC4)C3)C2)CC1
6.31 nM | NC1CCN(C2CN(CC[C@]3(c4ccc(Cl)c(Cl)c4)CCC(=O)N(CC4CC4)C3)C2)CC1
1 nM | NC1CCN(C2CN(CC[C@]3(c4ccc(Cl)c(Cl)c4)CCC(=O)N(CC4CCC(F)(F)CC4)C3)C2)CC1

Biological target: T2, Substance-K receptor (Oryctolagus cuniculus, UniProt P79218)
T2 sequence (P79218 whole entry): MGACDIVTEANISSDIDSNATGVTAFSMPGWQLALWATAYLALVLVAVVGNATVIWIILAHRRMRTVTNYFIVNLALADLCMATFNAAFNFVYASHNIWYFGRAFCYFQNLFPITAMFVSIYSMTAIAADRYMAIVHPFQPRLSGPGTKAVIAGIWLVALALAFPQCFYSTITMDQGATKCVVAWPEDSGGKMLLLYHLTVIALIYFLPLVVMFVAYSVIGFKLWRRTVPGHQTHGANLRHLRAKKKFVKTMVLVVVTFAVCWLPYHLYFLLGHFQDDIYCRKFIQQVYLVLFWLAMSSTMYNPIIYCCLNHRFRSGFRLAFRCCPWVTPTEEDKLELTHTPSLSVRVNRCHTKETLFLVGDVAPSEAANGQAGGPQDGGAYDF
Assay: pA2 for NK2 receptor of rabbit pulmonary artery
Format: functional
Conditions: read-out: pA2 (converted)

Kb | Structure (SMILES)
6.31 nM | CCOC1CCN(C2CN(CC[C@]3(c4ccc(Cl)c(Cl)c4)CCC(=O)N(CC4CC4)C3)C2)CC1
10 nM | CN(C)S(=O)(=O)N1CCN(C2CN(CC[C@]3(c4ccc(Cl)c(Cl)c4)CCC(=O)N(CC4CC4)C3)C2)CC1
1.58 nM | O=C1CC[C@](CCN2CC(N3CCC(F)CC3)C2)(c2ccc(Cl)c(Cl)c2)CN1CCC1CC1
1 nM | CS(=O)(=O)N1CCN(C2CN(CC[C@]3(c4ccc(Cl)c(Cl)c4)CCC(=O)N(CC4CCC(F)(F)CC4)C3)C2)CC1
3.16 nM | CS(=O)(=O)N1CCN(C2CN(CC[C@]3(c4ccc(Cl)c(Cl)c4)CCC(=O)N(CC4CC4)C3)C2)CC1
2 nM | NC1CCN(C2CN(CC[C@]3(c4ccc(Cl)c(Cl)c4)CCC(=O)N(CC4CC4)C3)C2)CC1
0.2 nM | NC1CCN(C2CN(CC[C@]3(c4ccc(Cl)c(Cl)c4)CCC(=O)N(CC4CCC(F)(F)CC4)C3)C2)CC1

System: not listed separately
Assay: Oral absorption of 20 mg/kg tested in rat
Format: ADME, organism-based
Set-up: dose 20 mg/kg
Conditions: in vivo, read-out: Absorption

Fa | Structure (SMILES)
> 80% | O=C1CC[C@](CCN2CC(N3CCC(F)CC3)C2)(c2ccc(Cl)c(Cl)c2)CN1CC1CCC(F)(F)CC1

System: not listed separately
Assay: Distribution coefficient (Log D) value at pH 7.4
Format: physicochemical
Conditions: octanol/water

logD | Structure (SMILES)
0.1 | NC1CCN(C2CN(CC[C@]3(c4ccc(Cl)c(Cl)c4)CCC(=O)N(CC4CCC(F)(F)CC4)C3)C2)CC1

System: not listed separately
Assay: Half life in human microsomal liver cells
Format: ADME
Conditions: liver microsomes

half-life | Structure (SMILES)
> 2 h | O=C1CC[C@](CCN2CC(N3CCC(F)CC3)C2)(c2ccc(Cl)c(Cl)c2)CN1CC1CCC(F)(F)CC1
< 0.167 h | CS(=O)(=O)N1CCN(C2CN(CC[C@]3(c4ccc(Cl)c(Cl)c4)CCC(=O)N(CC4CC4)C3)C2)CC1

Species: Homo sapiens
Assay: Ratio of apical basolateral (A-B) and basolateral apical (B-A) determined by Caco-2 assay in human (ER=1)
Format: ADME
Conditions: not given

Caco-2 permeability | Structure (SMILES)
34 % hr-1 | CCOC1CCN(C2CN(CC[C@]3(c4ccc(Cl)c(Cl)c4)CCC(=O)N(CC4CC4)C3)C2)CC1
> 35 % hr-1 | O=C1CC[C@](CCN2CC(N3CCC(F)CC3)C2)(c2ccc(Cl)c(Cl)c2)CN1CC1CCC(F)(F)CC1

Species: Homo sapiens
Assay: Ratio of apical basolateral (A-B) and basolateral apical (B-A) determined by Caco-2 assay in human (ER=6/12)
Format: ADME
Conditions: not given

Caco-2 permeability | Structure (SMILES)
Permeable | CS(=O)(=O)N1CCN(C2CN(CC[C@]3(c4ccc(Cl)c(Cl)c4)CCC(=O)N(CC4CCC(F)(F)CC4)C3)C2)CC1
